This note sets out measurements from the METLIN SMRT retention time set (Domingo-Almenara et al. 2019).

Structures are written as SMILES.

This data set is described as follows: gradient 5% acetonitrile 3 min, to 50% in 2 min, to 85% in 15 min, held 3 min, 100 µL/min. As to conditions: column: Zorbax Extend-C18 2.1 x 50 mm; eluents: water / acetonitrile, 0.1% formic acid. The essentials:
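Retention times of pure standards were taken from adduct peaks that were selected by computer and manually inspected. Over 3 months, mixtures of ~100 molecules were run by HPLC–quadrupole time-of-flight mass spectrometry in positive and negative ionization mode. The Zorbax Extend-C18 column (2.1 × 50 mm, 1.8 μm) ran at 100 μL/min in water and acetonitrile, each containing 0.1% formic acid, with 40 μL dead volume and 900 μL dwell volume.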
`Cc1cc(N2CCN(C)CC2)nc(N2CCN(C(=O)c3ccc(C(C)(C)C)cc3)CC2)n1` showed an RP-LC retention time of 586 s. Take `CCOC(=O)c1c(C)[nH]c(CCC(=O)NCCc2c[nH]c3ccc(OC)cc23)c1C`: the RP-LC retention time turned out to be 837 s. The same measure for `Cc1ccccc1CNC(=O)C1(C)CCN(S(=O)(=O)c2ccc(F)cc2)CC1`: 925 s. Compound `CCC(C)NC(=O)Cn1nc2c(Oc3ccccc3)nc3ccccc3n2c1=O` (stereo not given) gave an RP-LC retention time of 895 s. Under `COc1ccc(OC)c(S(=O)(=O)N2CCCC(C(=O)N3CCC(C(N)=O)CC3)C2)c1` (stereo not given) stands 635 s; under `COc1cc(NC(=O)Nc2ccc3nc(N4CCN(C)CC4)cc(C)c3c2)cc(OC)c1OC`, 574 s; under `Cc1ccc(-n2ccc(=O)c(-c3nc(-c4ccccc4)no3)n2)cc1`, 888 s. Under `CC(Oc1ccccc1F)C(=O)Nc1ccc(-c2nc(-c3ccccc3)no2)cc1` (stereo not given) stands 1260 s; under `COc1ccc2c(c1)C1(CCN(S(=O)(=O)c3ccc(C)cc3)C1)C(=O)N2C` (stereo not given), 929 s. `CN1CCc2cccc3c2C1Cc1ccc(O)c(O)c1-3` (stereo not given): the RP-LC retention time was determined as 606 s.

Regarding `Cc1cc(C)n(CCN2CCN(C(=O)Cc3cccs3)CC2)n1`, the RP-LC retention time was determined as 548 s. Under `CCOc1ccc(-n2c(CN3CCN(C(=O)NC(C)CC)CC3)nc3cccnc32)cc1` (stereo not given) stands 650 s; under `Cc1ccccc1-c1nc(C2CCN(S(=O)(=O)c3ccccc3)CC2)no1`, 1140 s. The same measure for `Cc1nc(-c2cccs2)sc1C(=O)NCCn1nc(-n2ccnc2C)ccc1=O`: 564 s. The same measure for `O=C(CCn1c(CO)nc2ccccc21)c1ccccc1`: 578 s; for `CC(C)(C)c1noc(-c2ccc(-n3cnc(C(=O)NC4CCCCC4)c3)nc2)n1`: 1040 s; for `O=C(Nc1ccc(Cl)cc1)N1CCc2nc[nH]c2C1`: 594 s. For `CC(NC(=O)c1ccc2c(c1)nc1n2CCN(C2CCCCC2)C1=O)c1ccccc1` (stereo not given), the RP-LC retention time amounted to 836 s. The same measure for `CC(=O)N1CCc2cc(-c3ccc(C(=O)NCCN4CCCCC4C)cc3)ccc21` (stereo not given): 622 s. The compound `CCn1cc(-c2nc(C(=O)Nc3ccc(Cl)cc3)cs2)c2cccnc21` registered an RP-LC retention time of 1330 s.

Compound `O=C(NC1CCCCC1)C1CCCN(C(=O)c2cc(-c3ccccn3)n[nH]2)C1` (stereo not given) gave an RP-LC retention time of 659 s.

Compound `CCC(c1cccs1)N1C(=O)[C@H]2CN(S(=O)(=O)c3ccc(Cl)cc3)C[C@H]2C1=O` (stereo not given in full) yielded an RP-LC retention time of 1060 s. The same measure for `COCCc1noc(-c2cnc3nc(C)ccc3c2Nc2ccccc2Cl)n1`: 779 s. The same measure for `COCC(C)(O)CNC(=O)c1cccnc1SC` (stereo not given): 577 s; for `O=C(Cc1cc(-c2ccc3c(c2)OCCO3)on1)N1CCN(C(=O)c2ccco2)CC1`: 680 s; for `COc1ccc(NC(=O)N2c3ccccc3CC2c2nc(C(C)C)no2)cc1OC` (stereo not given): 935 s.

In turn, `Cc1sc2ccn(C)c(=O)c2c1C(=O)NCc1cc(F)ccc1F` displayed an RP-LC retention time of 781 s. Under `Cc1cnc(C2CCC2)n1C1CCN(C(=O)C2(c3ccccc3)CC2)CC1` stands 663 s; under `COC(=O)c1ccc2c(=O)n(-c3ccc(F)c(Cl)c3)c(N3CCN(c4ccccn4)CC3)nc2c1`, 762 s; under `COc1ccc(NC(=O)C(=O)c2cccn2C)c(OC)c1`, 976 s. The same measure for `CCN1C(=O)C(CC(=O)NC(C)C)Sc2ncccc21` (stereo not given): 655 s; for `Nc1cc(C2CCN(C(=O)c3cccc(Br)c3)CC2)no1`: 709 s. The same measure for `O=C(c1ccccc1)N1CCc2cc(CNS(=O)(=O)c3ccccc3)ccc21`: 819 s; for `COc1cccc(-c2noc(Cn3ccnc3C)n2)c1OC`: 601 s. `CC(C)CNC(=O)c1cn(-c2cc(-c3nc(C(C)C)no3)ccn2)cn1`: the RP-LC retention time turned out to be 920 s. The same measure for `O=c1oc2cc(O)c(Cl)cc2c2c1CCC2`: 794 s. For the compound `COc1nn(C)cc1C(=O)NCC1(c2ccc(F)cc2)CC1`, the RP-LC retention time is 751 s. Under `O=S(=O)(c1ccc(F)cc1F)N1CCc2nc(-c3ccc(Cl)cc3)ncc2C1` stands 1200 s; under `Cn1cc(S(=O)(=O)N2CCCCC2)cc1C(=O)Nc1ccccc1`, 960 s. The same measure for `O=C(NC1CCCC1)c1nc(C(=O)N2CCN(c3ncccn3)CC2)cs1`: 759 s; for `COCCn1ccc2nc(C)c(C(=O)N3CCN(c4ncccn4)CC3)cc2c1=O`: 609 s; for `Cc1cc(C)n(-c2ccc(=O)n(CCNC(=O)c3cncc(Br)c3)n2)n1`: 636 s. The same measure for `COCCn1cc2c3c(cccc31)CN(C(=O)Nc1cccc(Cl)c1C)CC2`: 1070 s; for `O=S(=O)(c1cc(F)ccc1F)N1CCC(c2noc(COCC3CC3)n2)CC1`: 1000 s; for `Cc1noc(-c2csc(C(=O)N3CCCC3)n2)n1`: 688 s.

`Cn1cc2c3c(cccc31)CN(C(=O)Nc1ccc(Cl)cc1F)CC2` registered an RP-LC retention time of 1250 s. Regarding `Clc1ccc2nc(-c3ccc(N4CCOCC4)cc3)c(Nc3ccccc3)n2c1`, the RP-LC retention time was determined as 752 s.

With `COc1ccc(C)cc1NC(=O)N(C)CCc1noc(COc2cccc(C)c2)n1`, the RP-LC retention time was 1020 s. Under `COc1ccc(-c2nc(NCc3ccc(C)o3)c3ccccc3n2)cc1` stands 784 s. The same measure for `Cc1cc(F)ccc1NC(=O)C1CCCN(c2nc3c(s2)c(C)nn3-c2ccccc2)C1` (stereo not given): 1140 s; for `CN(C)c1cccc(-c2nc(-c3ccc(S(=O)(=O)N4CCCC4)cc3)no2)c1`: 1250 s; for `CC1CC(C)CN(S(=O)(=O)c2cccc(-c3cn4cc(Cl)ccc4n3)c2)C1` (stereo not given): 1090 s.

`CN(C)CCCNC(=O)C1CCN(c2nc3ccc(-c4ccc(F)cc4)nc3s2)CC1` had an RP-LC retention time of 686 s.

Consider `Cc1cc(C)c(NC(=O)Cn2nc3cc(-c4ccccc4)nc(C)n3c2=O)c(C)c1`, for which the RP-LC retention time turned out to be 985 s. In turn, `Cc1ccc(Cn2cc(-c3ccncc3)cc2C(=O)NCc2ccc(C)o2)cc1` had an RP-LC retention time of 734 s.

As to `COC(=O)c1ccc(OC)c(Cn2cnc3c(-c4ccccc4C)csc3c2=O)c1`, the RP-LC retention time is 1060 s.

As to `O=C(NCc1ccccc1F)c1ccc2c(c1)CN(Cc1cccc(F)c1)CCO2`, the RP-LC retention time worked out at 675 s. The same measure for `CCN(CC)c1cc(CNC(=O)Nc2cc(OC)cc(OC)c2)ccn1`: 620 s; for `COc1ccc(F)cc1S(=O)(=O)N1CCC(n2cnnc2C)CC1`: 650 s; for `CCN1C(=O)c2cccnc2Sc2cc(NC(=O)c3ccc(F)c(F)c3)ccc21`: 874 s. Under `CN1CCO[C@@H](C(=O)NC2CC2)[C@@H]1c1ccccc1` stands 562 s.

With `O=C(CSc1ccc(-n2ccnc2)nn1)Nc1ccc(OC(F)(F)F)cc1`, the RP-LC retention time was found to be 618 s. The same measure for `COc1ccc(-c2csc(NCCc3ccc(OC)c(OC)c3)n2)cc1`: 792 s; for `O=C1c2cccc(NCCCNCCO)c2C(=O)c2cccc(NCCCNCCO)c21`: 583 s; for `CC1(C(=O)NCc2ccc(Cl)cc2)CN(S(C)(=O)=O)CC(=O)N1Cc1ccc(F)cc1` (stereo not given): 814 s. `Cc1ccc(NC(=O)CCC2CCN(c3cc(NC4CC4)ncn3)CC2)cc1` yielded an RP-LC retention time of 692 s. `COc1ccc(-c2ncc3c(n2)CCN(S(=O)(=O)c2ccc(Cl)cc2)C3)cc1` returned an RP-LC retention time of 1100 s. Under `Cn1cccc(C(=O)NC2CC(=O)N(C3CC3)C2)c1=O` (stereo not given) stands 547 s; under `O=C(CCCN1C(=O)c2cccnc2Sc2ccccc21)N1CCN(c2ccccn2)CC1`, 592 s.

`O=C(O)CCC1(c2ccccc2)NC(=O)NC1=O` (stereo not given) came in with an RP-LC retention time of 651 s. Under `COc1ccc(OC)c(NC(=O)C2(CCO)CCN(c3ncccn3)C2)c1` (stereo not given) stands 631 s; under `COc1ccc(OC)c(-c2cn3ccn(-c4cccc(Cl)c4)c(=O)c3n2)c1`, 887 s; under `COc1cccc(-c2ccc3nc(N4CCC(C(=O)NCCN(C)C)CC4)sc3n2)c1`, 669 s.

The compound `O=c1cccnn1CCNS(=O)(=O)c1cccnc1` had an RP-LC retention time of 565 s. Under `O=C(NCc1ccccc1Cl)C(=O)NCC1CCN(C(=O)COc2ccccc2)CC1` stands 566 s; under `Cc1ccc(CNC(=O)c2cc3n(n2)CC(C)(C(=O)NCc2ccc(F)cc2)N(C)C3=O)cc1` (stereo not given), 741 s; under `COc1cc(NC(=O)N2CC(C)Sc3ccccc32)cc(OC)c1OC` (stereo not given), 961 s.

For the compound `COc1cccc(-c2noc(Cc3nnc(-c4ccc(F)cc4)o3)n2)c1OC`, the RP-LC retention time was determined as 943 s. The same measure for `COc1ccc2[nH]c(=O)c(CCC(=O)NCCCN3CCCCC3)cc2c1`: 586 s; for `CNC(=O)N1CCCN(S(C)(=O)=O)C(c2ccccc2)CC(=O)NCC1` (stereo not given): 616 s.
